Experimental data as given in patent US5866511A, “Stabilized solutions of bromonitromethane and their use as biocides” (Great Lakes Chemical Corporation, priority 1997, dated 1999).
Values after ≈ are worked out from the molar mass of the structure shown. Like-named read-outs stand apart in the source and are kept apart here.

How the values were obtained:
Aspergillus niger = test: Inhibition of fungal growth in synthetic cooling water (MIC); format: cell-based, Aspergillus niger (ATCC 9642); conditions: for MIC: 168 h, read-out: Minimum Inhibitory Concentration
Description: Industrial water presents a favorable environment for fungal growth. Fungi can cause many problems in industrial systems including damage to cooling tower wood fill and decks by delignification. Synthetic water is prepared according to the following formula: 0.2 mM MgSO4, 1.2 mM CaCl2 and 1.0 mM NaHCO3. Cooling water presents a favorable environment for microbiological growth. Fungi can damage the cooling tower wood fill and decks by delignification. Synthetic cooling water (CW) is prepared according to the following formula: 0.2 mM MgSO4, 1.2 mM CaCl2, and 1.0 mM NaHCO. The pH is adjusted to either 6 or 8 with either H2 SO4 or NaOH. The resulting solution is then sterilized by passing through a 0.2 μm filter. Various concentrations of acidified BNM solution (pH ranging from 1.5 to 4.0) are added to aliquots of sterile synthetic water. A positive control is prepared by omitting the BNM.
Three day old cultures of Aspergillus niger (ATCC 9642) are harvested from the surface of potato dextrose agar (Difco, Detroit, Mich.) supplemented with tartaric acid. The samples are dosed with A. niger to achieve a concentration of 10^3 CFU/ml. These samples are incubated for one week at ambient temperature. The cultures are plated onto PDA in order to recover any surviving mold. These plates are incubated for three days at ambient temperature. […] The minimum inhibitory concentration (MIC), defined as the lowest concentration of BNM which prevented fungal growth on the PDA plates, is determined.

all the organisms = conditions: quoted from Clark et al.; attributed to volatility; cited from earlier work
Pseudomonas aeruginosa [1] = test: Inhibition of bacterial growth in contaminated paint (MIC); format: cell-based; conditions: for MIC: paint, 25° C., read-out: Minimum Inhibitory Concentration
Description: Water based paints are subject to microbial attack which could produce viscosity loss or offensive odors. Biocides are added to protect the paint from such degradation in the can. A paint sample was artificially contaminated with Pseudomonas aeruginosa, a bacterium which is frequently found in spoiled paint. […] The thermal treatment inactivates residual biocide present in the paint.
Acidified solutions of BNM (pH ranging from 1.5 to 3.5) are diluted with sterile water and added at various concentrations to the paint. Positive controls are established by the omission of BNM addition.
A sterile swab was dipped into the paint and samples are plated onto tryptone glucose extract agar (TGEA; Difco, Detroit, Mich.). Samples of contaminated paint are subsequently swabbed onto sterile TGEA after 1,2,3,7, and 14 days of incubation of 25° C. The plates are incubated for one week at 25° C. Any growth observed on the agar surface during the incubation period is noted. […] The minimum inhibitory concentration (MIC), defined as the lowest concentration of BNM which prevented bacterial growth in the paint, is determined for the inventive solutions.

Chlamydomonas = test: Inhibition of algal growth in Allens medium (MIC), Chlamydomonas; format: cell-based
Description: (§1) Pure cultures of the algal genera Anabeana, Chlamydomonas, and Chlorella are used to inoculate Allens medium at pH 7.5 achieving a final concentration of 10^4 cells/ml. All tests are performed on pure cultures. Various concentrations of acidified BNM solution (for each pH across the pH range of 1.5 to 3.5) are added to the culture tubes. Positive controls are established by the omission of BNM.
(§2) The algal cultures are housed in a light box (400 ft. candles; light source--cool white fluorescent tubes; 16 h on/8 h off cycles; 22°-26° C.) for three weeks. The cultures are read weekly noting any turbidity and green coloration of the medium which would indicate a positive result. […] The minimum inhibitory concentration was determined, with representative results being shown below.

Chlorella = test: Inhibition of algal growth in Allens medium (MIC), Chlorella; format: cell-based
Description: as §1, §2

Pseudomonas aeruginosa [2] = test: Inhibition of aerobic bacteria in borate buffer (MIC, at least 90% decrease); format: cell-based, Pseudomonas aeruginosa (ATCC 278853)
Description: Borate buffer (25 mM) is adjusted to either pH 7 or 8. The buffer was sterilized by passing through a 0.2 μm filter. Pseudomonas aeruginosa (ATCC 278853) is added to aliquots of the sterile buffer to achieve a final concentration of 10^6 cells/ml. This population is confirmed by serially diluting a sample in sterile phosphate buffer (0.3 mM) and plating onto tryptone glucose extract agar (TGEA; Difco, Detroit, Mich.). Acidified solutions of bromonitromethane are added at various concentrations to the test cultures. Solutions acidified with acids to pHs of between 1.5 and 3.5 are prepared and tested. Positive controls are established by omitting BNM from the test samples.
Following 3 and 24 hour exposure periods at ambient temperature, the resulting test suspensions are diluted and plated as previously described. All plates are enumerated following an incubation period of 24 hr. at 37° C. The minimum inhibitory concentration is defined as the lowest concentration which decreased the microbial population by at least 90% over the period tested.

[3] = CO2 off-gassing during storage of solutions; format: physicochemical; conditions: stabilized (acidified) solutions, storage under standard conditions
Description: (§3) BNM (4.58 g, 91.4% assay) was dissolved in 100 mL of deionized water sample 1. A pH 2.37 solution was prepared by adding one drop of sulfuric acid to 100 mL DI water and then adding 4.60 g of the BNM sample 2. A pH 3.76 solution was prepared by adding one drop of 10% aq sodium hydrogen sulfate to 100 mL DI water and then adding 4.60 g of the BNM sample 3. A pH 7.91 solution was prepared by dissolving 4.60 g of the BNM in 100 mL of DI water. A total of 7.2 g of 16.4% NaOH was then added over six minutes to maintain the pH. That solution turned red, indicating the presence of the bromonitromethylate anion and was slowly becoming acidic before the initial bromide value was determined.
The solutions of the present invention provide the additional benefit of minimizing off-gassing of CO2 during storage of the solution.

Pseudomonas aeruginosa [4] = test: Inhibition of microbial growth in alkaline paper pulp (MIC, at least 90% decrease); format: cell-based, Pseudomonas aeruginosa (ATCC 27853); conditions: read-out: Minimum Inhibitory Concentration
Description: Microbial growth at various points in a paper making system could produce a slime layer which could drop onto the paper sheet causing product damage and machine downtime due to breaks. Biocides are added to keep the microbial growth in check throughout the system. A pulp slurry (1.25% dry basis) was prepared in sodium phosphate buffer (200 mM, pH 8). The slurry is sterilized by autoclaving at 121° C. for 20 min. Pseudomonas aeruginosa (ATCC 27853) is added to the sterile pulp slurries to achieve a final concentration of 10^6 cells/ml. This population is confirmed by serially diluting a sample in sterile phosphate buffer (0.3 mM) and plating onto tryptone glucose extract agar (TGEA; Difco, Detroit, Mich.). Bromonitromethane is added at various concentrations to the test cultures. Controls are established by omitting BNM from the test samples. Following a 3 and 24 hr. exposure period at ambient temperature, the resulting test suspensions are diluted and plated as previously described. All plates are enumerated following an incubation period of 24 hr. at 37° C. The minimum inhibitory concentration is defined as the lowest concentration which decreased the microbial population by at least 90% over the period tested.

[5] = Storage stability of aqueous BNM concentrates (bromide ion concentration by ion selective electrodes over 57 days; gas chromatography); format: physicochemical
Description: Determination of enhanced formulation stability for solutions of bromonitromethane.
A study was performed to determine if aqueous concentrates of BNM could be prepared with adequate storage stability to make the material useful as a biocide. […] Less acidified solutions had faster degradation rates.
as §3
Each solution was measured for bromide ion concentration using ion selective electrodes over the course of 57 days to determine the degree of hydrolysis.
An acidified solution of bromonitromethane (BNM) is prepared by adding one drop of sulfuric acid to 100 ml distilled water and then adding 4.60 g of BNM (91.4% assay). The solution is sampled for gas chromatography assay at the beginning and end of these studies to confirm the BNM concentration. Aqueous solutions of BNM were stable when acidified with mineral acids to acidic pHs. The material hydrolyzed at a very slow rate giving a half-life of over ten years.
In a similar manner, acidified bromonitromethane solutions having pHs of about 1.0, 1.5, 2.0, 2.5, 3.0, 3.5 and 4.0 are prepared.

Anabeana = test: Inhibition of algal growth in Allens medium (MIC), Anabeana; format: cell-based
Description: as §1, §2

[6] = test system: Desulfovibrio desulfuricans; test: Inhibition of sulfate reducing bacterium in API broth (MIC); format: cell-based; conditions: for MIC: read-out: Minimum Inhibitory Concentration
Description: API broth (Difco, Detroit, Mich.) is inoculated with the sulfate reducing bacterium (SRB) Desulfovibrio desulfuricans (10^4 cells/ml). Stable, acidified solutions of bromonitromethane (pH ranging from 1.5 to 3.6) are added to provide bromonitromethane at various concentrations to the SRB cultures. A positive control is constructed in the same fashion […] BNM addition.
The cultures are housed in a GasPak® jar (Becton Dickinson Microbiology Systems, Cockeysville, Md.) under anaerobic conditions (4-10% CO2, <1% O2) at ambient temperature. Cultures are checked weekly for a period of three weeks for visible […] growth indicative of SRB's. […] The minimum inhibitory concentration (MIC), defined as the lowest concentration of BNM which prevented bacterial growth in the API broth tubes, is determined.

[7] = 504 h, Allens medium pH 7.5, three weeks, read-out: Minimum Inhibitory Concentration

SMILES: O=[N+]([O-])CBr [Bromonitromethane, bromonitromethane]
- MIC (Aspergillus niger; synthetic cooling water pH 6, one week): < 1 mg/L
- MIC (Aspergillus niger; synthetic cooling water pH 8, one week): 1 to 5 mg/L (≈ 7.15 to 35.7 µM)
- growth inhibition (in words) (Aspergillus niger; acidified BNM solutions): effective for inhibiting the growth
- inhibition of organisms (in words) (all the organisms): inhibited all the organisms . . . but gave inconsistent results
- MIC (Pseudomonas aeruginosa [1]; 24 h, 1 day incubation): 2 to 5 mg/L (≈ 14.3 to 35.7 µM)
- MIC (Pseudomonas aeruginosa [1]; 48 h, 2 days incubation): 2 to 5 mg/L (≈ 14.3 to 35.7 µM)
- MIC (Pseudomonas aeruginosa [1]; 72 h, 3 days incubation): 2 to 5 mg/L (≈ 14.3 to 35.7 µM)
- MIC (Pseudomonas aeruginosa [1]; 168 h, 7 days incubation): 2 to 5 mg/L (≈ 14.3 to 35.7 µM)
- MIC (Pseudomonas aeruginosa [1]; 336 h, 14 days incubation): 2 to 5 mg/L (≈ 14.3 to 35.7 µM)
- growth inhibition (in words) (Pseudomonas aeruginosa [1]; acidified BNM solutions): effective for inhibiting the growth
- MIC (Chlamydomonas; [7]): 0.1 to 0.5 mg/L (≈ 0.715 to 3.57 µM)
- growth inhibition (in words) (Chlamydomonas; acidified BNM solutions): effective for inhibiting the growth
- MIC (Chlorella; [7]): 0.5 to 1 mg/L (≈ 3.57 to 7.15 µM)
- growth inhibition (in words) (Chlorella; acidified BNM solutions): effective for inhibiting the growth
- MIC (Pseudomonas aeruginosa [2]; 3 h, pH 7, read-out: Minimum Inhibitory Concentration): 0.6 to 3.2 mg/L (≈ 4.29 to 22.9 µM)
- MIC (Pseudomonas aeruginosa [2]; borate buffer pH 7, 24 hour exposure, ≥90% decrease, read-out: Minimum Inhibitory Concentration): 0.3 to 0.6 mg/L (≈ 2.14 to 4.29 µM)
- MIC (Pseudomonas aeruginosa [2]; borate buffer pH 8, 3 hour exposure, ≥90% decrease, read-out: Minimum Inhibitory Concentration): 0.6 to 3.2 mg/L (≈ 4.29 to 22.9 µM)
- MIC (Pseudomonas aeruginosa [2]; borate buffer pH 8, 24 hour exposure, ≥90% decrease, read-out: Minimum Inhibitory Concentration): 0.3 to 0.6 mg/L (≈ 2.14 to 4.29 µM)
- CO2 off-gassing vs non-stabilized solutions [3]: substantially reduce off-gassing (CO2)
- MIC (Pseudomonas aeruginosa [4]; pulp slurry pH 8, 3 hr exposure): 1 to 5 mg/L (≈ 7.15 to 35.7 µM)
- MIC (Pseudomonas aeruginosa [4]; pulp slurry pH 8, 24 hr exposure): < 1 mg/L
- optimum pH for stability ([5]; acidified with strong acids): about 2.3
- degradation rate ([5]; most stable solution, acidified with H2SO4 to pH 2.3, 72000 min): 0.4 % BNM per 50 days
- hydrolysis (in words) ([5]; non-acidified solutions): hydrolyze rapidly
- MIC (Anabeana; [7]): 0.5 to 1 mg/L (≈ 3.57 to 7.15 µM)
- growth inhibition (in words) (Anabeana; acidified BNM solutions, Anabeana): effective for inhibiting the growth
- MIC ([6]; 168 h): < 0.1 mg/L
- MIC ([6]; 336 h, API broth, anaerobic, pH = 2.37, 2 weeks): 0.1 to 0.5 mg/L (≈ 0.715 to 3.57 µM)
- MIC ([6]; 504 h, API broth, anaerobic, pH = 2.37, 3 weeks): 0.1 to 0.5 mg/L (≈ 0.715 to 3.57 µM)
- growth inhibition (in words) ([6]; acidified BNM solutions): effective for inhibiting the growth
